The values that follow come from paper PMC5681660, “Reduced hepatitis B and D viral entry using clinically applied drugs as novel inhibitors of the bile acid transporter NTCP” (Scientific Reports, 2017).

Where a name gives a salt, the structure may show the parent alone.

This assay deals with T1, human NTCP (Homo sapiens, UniProt Q14973).
T1 sequence (Q14973 1-349): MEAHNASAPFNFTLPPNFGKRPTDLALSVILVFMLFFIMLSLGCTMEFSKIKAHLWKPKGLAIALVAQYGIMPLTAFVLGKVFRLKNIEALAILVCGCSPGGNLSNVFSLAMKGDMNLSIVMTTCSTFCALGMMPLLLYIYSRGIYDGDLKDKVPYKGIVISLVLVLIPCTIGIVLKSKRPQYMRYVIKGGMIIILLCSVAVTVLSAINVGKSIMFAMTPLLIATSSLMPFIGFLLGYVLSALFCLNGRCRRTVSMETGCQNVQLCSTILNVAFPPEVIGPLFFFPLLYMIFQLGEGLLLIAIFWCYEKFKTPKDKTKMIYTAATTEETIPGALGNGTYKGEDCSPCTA
Nature of the assay: Screening taurocholate uptake assay (96-well, [14C]taurocholate, 10 µM drug). The following applies: for B-score functional assay: screening taurocholate uptake, 10 µM drug.

Setting [1] is: combined ranking of functional and binding screening assays.
[2] abbreviates: ranking over the functional and the binding screening assay.

As for `CC(=O)[C@H]1CC[C@H]2[C@@H]3CCC4=CC(=O)CC[C@]4(C)[C@H]3CC[C@]12C` [Progesterone], the B-score functional assay stood at 0.628. In addition, under setting [1], the Ranking score turned out to be 609.007.

In the case of `C[C@H](O)C(=O)Nc1c(I)c(C(=O)NC(CO)CO)c(I)c(C(=O)NC(CO)CO)c1I` [Iopamidol], the B-score functional assay is given as -2.672. The molecule also gave a Ranking score under setting [2] of 105.925.

As for `COc1ccc(OC)c(C(O)C(C)N)c1` (stereo not drawn) [Methoxamine hydrochloride], the B-score functional assay is -0.662. The Ranking score under setting [1] was found to be 647.236.

Turning to `CC(Oc1c(Cl)cccc1Cl)C1=NCCN1` (stereo not drawn) [Lofexidine], the B-score functional assay was -0.33. For the same molecule, the Ranking score under setting [1] worked out at 633.467.

In turn, `NC(=O)c1cnccn1` [Pyrazinamide] showed a B-score functional assay of 0.065. The Ranking score under setting [2] is reported as 244.119.

With `CN(C)CCCN1c2ccccc2Sc2ccc(Cl)cc21` [Chlorpromazine hydrochloride], the B-score functional assay was 1.542. Also, the Ranking score under setting [2] is on record as 173.367.

For the molecule `CCCCN1CCCCC1C(=O)Nc1c(C)cccc1C` (stereo not drawn) [Bupivacaine hydrochloride], the B-score functional assay is -1.136. This molecule registered a Ranking score under setting [2] of 231.991.

As for `CCN(CC)C(=O)c1ccc(O)c(OC)c1` [Ethamivan], the B-score functional assay was -1.181. The Ranking score under setting [1] was 538.826.

Turning to `COc1cnc(NS(=O)(=O)c2ccc(N)cc2)nc1` [Sulfameter], the B-score functional assay is listed as -1.201. The Ranking score under setting [1] is 466.613.

Consider `CCCc1nc(C)c2c(=O)[nH]c(-c3cc(S(=O)(=O)N4CCN(CC)CC4)ccc3OCC)nn12` [Vardenafil], for which the B-score functional assay is -0.039. Besides, the Ranking score under setting [1] was found to be 546.31.

For `O=C(O)CCCC[C@@H]1SC[C@@H]2NC(=O)N[C@@H]21` [Biotin], the B-score functional assay was -2.274. The same molecule gave a Ranking score under setting [2] of 66.9328.

Molecule `CCN(CC)CCc1nc(-c2ccccc2)no1.O=C(O)CC(O)(CC(=O)O)C(=O)O` [Oxalamine citrate salt] gave a B-score functional assay of 0.505. For the same molecule, the Ranking score under setting [1] stood at 587.786.

For the molecule `Cn1cnc2c1c(=O)[nH]c(=O)n2C` [Theobromine], the B-score functional assay was -0.75. The Ranking score under setting [1] is recorded as 527.693.

As for `N#CC(c1ccc(Cl)cc1)c1c(Cl)cc(-n2ncc(=O)[nH]c2=O)cc1Cl` (stereo not drawn) [Diclazuril], the B-score functional assay was -9.074. Also, the Ranking score under setting [2] came to 46.9894.

With `CC(COc1ccccc1)N(CCCl)Cc1ccccc1` (stereo not drawn) [Phenoxybenzamine hydrochloride], the B-score functional assay is given as -0.06. In addition, under setting [2], the Ranking score was determined as 229.8.

As to `Cl.O=C1OC(CN2CCOCC2)CN1/N=C/c1ccc([N+](=O)[O-])o1` (stereo not drawn) [Furaltadone hydrochloride], the B-score functional assay is given as 0.718. The Ranking score under setting [1] is 592.766.

`CN(C)CCn1nnnc1SCC1=C(C(=O)O)N2C(=O)[C@@H](NC(=O)Cc3csc(N)n3)[C@H]2SC1` [Cefotiam hydrochloride] had a B-score functional assay of 1.511. The molecule further returned a Ranking score under setting [2] of 197.995.

On to `Br.C[N+]1([O-])[C@@H]2CC(OC(=O)[C@H](CO)c3ccccc3)C[C@H]1[C@@H]1O[C@@H]12` (stereo partly drawn) [Scopolamin-N-oxide hydrobromide], for which the B-score functional assay is -2.352. Under setting [2], this molecule yielded a Ranking score of 208.216.

Turning to `CC1(C)S[C@@H]2[C@H](NC(=O)[C@H](C(=O)O)c3ccsc3)C(=O)N2[C@H]1C(=O)O` [Ticarcillin sodium], the B-score functional assay is recorded as -0.726. Under setting [2], this molecule yielded a Ranking score of 110.132.

In the case of `CC(=O)Oc1cccc2c1C(=O)c1c(OC(C)=O)cc(C(=O)O)cc1C2=O` [Diacerein], the B-score functional assay was -4.175. Also, the Ranking score under setting [2] turned out to be 199.08.

As for `Cc1cccc(C)c1OCC(C)N` (stereo not drawn) [Mexiletine hydrochloride], the B-score functional assay is given as -0.898. Moreover, under setting [1], the Ranking score amounted to 487.63.

As to `c1ccc2c(c1)Nc1ccccc1S2` [Phenothiazine], the B-score functional assay was -0.168. Further, under setting [1], the Ranking score is 553.972.

Regarding `CCCCOc1ccc(C(=O)CCN2CCCCC2)cc1` [Dyclonine hydrochloride], the B-score functional assay is on record as -0.08. Under setting [1], the Ranking score came out at 591.312.

As to `CN(CCOc1ccc(NS(C)(=O)=O)cc1)CCc1ccc(NS(C)(=O)=O)cc1` [Dofetilide], the B-score functional assay is -0.213. For the same molecule, under setting [1], the Ranking score is listed as 626.449.

On to `CC[C@H](c1ccc(O)cc1)[C@@H](CC)c1ccc(O)cc1` [Hexestrol], for which the B-score functional assay is -5.763. Further, the Ranking score under setting [2] is 43.1277.

As to `C[C@H](CCC(=O)O)[C@H]1CC[C@H]2[C@@H]3CC[C@@H]4C[C@H](O)CC[C@]4(C)[C@H]3CC[C@]12C` [litocholic acid], the “position among the hits of the screen (combined ranking of both screening assays)” value (1280 drugs at 10 µM, TC uptake and Myrcludex B binding screens combined) is on record as ≤ 150.

Consider `O=c1[nH]c(=O)n([C@H]2C[C@H](O)[C@@H](CO)O2)cc1I` [Idoxuridine], for which the B-score functional assay is listed as -4.488. The molecule also registered a Ranking score under setting [2] of 91.1921.

With `NS(=O)(=O)c1cc(C2(O)NC(=O)c3ccccc32)ccc1Cl` (stereo not drawn) [Chlorthalidone], the B-score functional assay is listed as -1.121. In addition, the Ranking score under setting [1] amounted to 532.184.

On to `C[C@H](CCC(=O)O)[C@H]1CC[C@H]2[C@@H]3[C@H](O)C[C@@H]4C[C@H](O)CC[C@]4(C)[C@H]3CC[C@]12C` [Chenodiol], for which the B-score functional assay was -1.277. The molecule further showed a Ranking score under setting [2] of 40.9878.

For the molecule `CCCC(C(=O)OCCN(CC)CC)(c1ccccc1)c1ccccc1` [Proadifen hydrochloride], the B-score functional assay is given as -1.354. Further, the Ranking score under setting [1] is 468.828.

For `OCCN1C[C@H](O)[C@@H](O)[C@H](O)[C@H]1CO` [Miglitol], the B-score functional assay is -1.145. Moreover, the Ranking score under setting [1] stood at 510.427.

`CC(C)[C@H](N)C(=O)OCCOCn1cnc2c(=O)[nH]c(N)nc21` [Valacyclovir hydrochloride] registered a B-score functional assay of 0.32. Also, the Ranking score under setting [1] came out at 518.986.

Take `CN(Cc1cc(Br)cc(Br)c1N)C1CCCCC1` [Bromhexine hydrochloride]: the B-score functional assay is -0.767. Besides, the Ranking score under setting [2] amounted to 149.492.

Regarding `CN(C)c1nc(N(C)C)nc(N(C)C)n1` [Altretamine], the B-score functional assay was -0.464. For the same molecule, under setting [1], the Ranking score amounted to 605.153.

For `C#C[C@]1(O)CC[C@H]2[C@@H]3CCC4=CC(=O)CC[C@@H]4[C@H]3CC[C@@]21C` [Norethindrone], the B-score functional assay is recorded as -0.48. Further, the Ranking score under setting [2] was 274.683.

With `CN1CCN(C(=O)OC2c3nccnc3C(=O)N2c2ccc(Cl)cn2)CC1` (stereo not drawn) [Zopiclone], the B-score functional assay is reported as -0.919. For the same molecule, the Ranking score under setting [2] is listed as 176.746.

In turn, `NC(=O)OCCCc1ccccc1` [Phenprobamate] had a B-score functional assay of 0.708. The Ranking score under setting [1] came to 613.275.

For `CCCOc1cc(N)ccc1C(=O)OCCN(CC)CC` [Propoxycaine hydrochloride], the B-score functional assay was -2.561. This molecule also gave a Ranking score under setting [2] of 73.2735.
